The values below come from patent US11999739B2, “Antimicrobials methods of making and using the same” (BIOVERSYS AG, priority 2016, dated 2024).

SMILES strings stand for the structures. A value given as a limit tells only on which side of the number the result lay.

The nature of data set [1]: Rat five day safety study (bodyweight gain, reticulocyte count change). To be noted: male Sprague-Dawley juvenile rats, n=5, once daily slow intravenous infusion for 5 days at or near maximum-tolerated dose; for BW Result: bodyweight gain; for Hematology Result: reticulocyte count change. In kind it is in vivo. As to the method:
The compounds of the present disclosure were tested for safety in a multi-day dosing study in rat. Key parameters that were monitored are bodyweight gain and hematological changes, particularly changes in reticulocyte counts. Male Sprague-Dawley (CD) juvenile rats were received from Charles River with double jugular vein catheters. For each compound, n=5. […] Bodyweights were recorded daily for the first 5 days (during the dosing period), then 2 to 3 times per week thereafter. Blood was collected via a jugular vein catheter into EDTA anti-coagulated tubes for complete blood counts (CBC) on Days 0 (baseline), 3 and 7. On Day 22, blood was drawn via a cardiac puncture into EDTA coated tubes for final CBC, and serum separator tubes for the complete clinical chemistry profile. The blood that was collected into serum separator tubes was allowed to clot at room temperature for approximately 30 minutes, spun in a centrifuge at 2000 rpm, and the resulting serum was aliquoted. All samples were sent on wet ice to Charles River Labs for analysis.

In data set [2] the test system is Staphylococcus aureus (S. aureus) 11540 strain. As to the kind of experiment: Standard microdilution MIC assay, S. aureus. In kind it is cell-based. In outline:
(§1)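 Broth microdilution per CLSI M7-A8 guidelines, with reference-strain quality control run in the same design; MIC determined per strain. Activity scored +/− against a 16 micrograms/mL cutoff.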
(Broth dilution looks for growth in wells or tubes with falling amounts of substance.)

Data set [3] relates to Escherichia coli strain ATCC25922. As to the kind of experiment: Standard microdilution MIC assay, E. coli. In kind it is cell-based. The gist of the method:
as §1

With `CC(=N)NCC[C@@H]1CCC[C@@H](c2ccc(-n3cc4cc(-c5cc(CCC[C@H](C)N)cc(Cl)c5F)[nH]c4nc3=O)cc2F)N1` [Compound 152], the “BW Result” value in data set [1] is “+ (a “+” in “BW result” indicates that the rat exhibited a weight gain of 20% or more)”. Besides, the “Hematology Result” value in data set [1] is listed as “+ (a “+” in “Hematology result” indicates indicates that the rat exhibited a reticulocyte count change of 65% or less)”. In addition, the minimal inhibitory concentration (MIC) in data set [2] and in data set [3] was no more than 16 µg/mL in each case.
Consider `CC(=N)NCC[C@@H]1CCC[C@@H](c2ccc(-n3cc4cc(-c5cc(CCC[C@H](C)N)cc(Cl)c5F)[nH]c4nc3=O)cc2S(C)(=O)=O)N1` [Compound 117], for which, in data set [1], the “BW Result” value is “− (a “−” indicates that the rat exhibited a weight gain of less than 20%)” and the “Hematology Result” value is “+ (a “+” in “Hematology result” indicates indicates that the rat exhibited a reticulocyte count change of 65% or less)”. This compound displayed an MIC in data set [2] of no more than 16 µg/mL. The MIC in data set [3] is no more than 16 µg/mL.
Regarding `CC(=N)NCC[C@@H]1CCC[C@@H](c2ccc(-n3cc4cc(-c5cc(CCC[C@H](C)N)c(C(F)(F)F)cc5F)[nH]c4nc3=O)cc2)N1` [Compound 317], in data set [1], the “BW Result” value was “− (a “−” indicates that the rat exhibited a weight gain of less than 20%)” and the “Hematology Result” value is “− (a “−” indicates indicates that the rat exhibited a reticulocyte count change of greater than 65%)”. In data set [2], the MIC is no more than 16 µg/mL. Moreover, the minimum inhibitory concentration (MIC) in data set [3] is no more than 16 µg/mL.
With `CC(=N)NCC[C@@H]1CCC[C@@H](c2c(F)cc(-n3cc4cc(-c5cc(CCC[C@H](C)N)cc(Cl)c5F)[nH]c4nc3=O)cc2F)N1` [Compound 127], in data set [1], the “BW Result” value is on record as “+ (a “+” in “BW result” indicates that the rat exhibited a weight gain of 20% or more)” and the “Hematology Result” value is “+ (a “+” in “Hematology result” indicates indicates that the rat exhibited a reticulocyte count change of 65% or less)”. This compound also had an MIC in data set [2] of no more than 16 µg/mL. The same compound had an MIC in data set [3] of no more than 16 µg/mL.
Consider `CC(=N)NCC[C@@H](NCc1ccc(-n2cc3cc(-c4cc(CCC[C@H](C)N)cc(Cl)c4F)[nH]c3nc2=O)cc1)C1CC1` [Compound 119], for which, in data set [1], the “BW Result” value is “− (a “−” indicates that the rat exhibited a weight gain of less than 20%)” and the “Hematology Result” value is “− (a “−” indicates indicates that the rat exhibited a reticulocyte count change of greater than 65%)”. This compound also came in with a minimum inhibitory concentration (MIC) in data set [2] of no more than 16 µg/mL. The compound further gave an MIC in data set [3] of no more than 16 µg/mL.
For the compound `C=C[C@H](N)CCCc1cc(Cl)c(F)c(-c2cc3cn(-c4ccc([C@@H]5CCC[C@@H](CCNC(C)=N)N5)c(SC)c4)c(=O)nc3[nH]2)c1` [Compound 182], in data set [1], the “BW Result” value is given as “− (a “−” indicates that the rat exhibited a weight gain of less than 20%)” and the “Hematology Result” value was “− (a “−” indicates indicates that the rat exhibited a reticulocyte count change of greater than 65%)”. In data set [2], this compound came in with an MIC of no more than 16 µg/mL. The same compound showed an MIC in data set [3] of no more than 16 µg/mL.
For `CCCN1[C@H](CCNC(C)=N)CCC[C@H]1c1ccc(-n2cc3cc(-c4cc(CCC[C@H](C)N)cc(Cl)c4F)[nH]c3nc2=O)cc1` [Compound 360], in data set [1], the “BW Result” value is listed as “+ (a “+” in “BW result” indicates that the rat exhibited a weight gain of 20% or more)” and the “Hematology Result” value was “+ (a “+” in “Hematology result” indicates indicates that the rat exhibited a reticulocyte count change of 65% or less)”. In data set [2], the MIC is no more than 16 µg/mL. Besides, the MIC in data set [3] is no more than 16 µg/mL.
Take `COC[C@H](N)CCCc1cc(-c2cc3cn(-c4ccc([C@@H]5CCC[C@@H](CCNC(C)=N)N5)cc4)c(=O)nc3[nH]2)c(F)c(C(F)(F)F)c1` [Compound 190]: in data set [1], the “BW Result” value is recorded as “− (a “−” indicates that the rat exhibited a weight gain of less than 20%)” and the “Hematology Result” value is “− (a “−” indicates indicates that the rat exhibited a reticulocyte count change of greater than 65%)”. Further, the MIC in data set [2] is no more than 16 µg/mL. Moreover, in data set [3], the MIC is no more than 16 µg/mL.
On to `CC(=N)NCCCN[C@@H](C)c1ccc(-n2cc3cc(-c4cc(CCC[C@H](C)N)cc(Cl)c4F)[nH]c3nc2=O)cc1` [Compound 110], for which the “BW Result” value in data set [1] is “− (a “−” indicates that the rat exhibited a weight gain of less than 20%)”. For the same compound, in data set [1], the “Hematology Result” value was “− (a “−” indicates indicates that the rat exhibited a reticulocyte count change of greater than 65%)”. The MIC in data set [2] and in data set [3] was no more than 16 µg/mL throughout.
`C=C[C@@H](CCNC(=N)CF)NCc1ccc(-n2cc3cc(-c4cc(CCC[C@H](C)N)cc(Cl)c4F)[nH]c3nc2=O)cc1` [Compound 23]: in data set [1], the “BW Result” value is listed as “+ (a “+” in “BW result” indicates that the rat exhibited a weight gain of 20% or more)”. The “Hematology Result” value in data set [1] is on record as “+ (a “+” in “Hematology result” indicates indicates that the rat exhibited a reticulocyte count change of 65% or less)”. Moreover, the MIC in data set [2] and in data set [3] was no more than 16 µg/mL throughout.
As for `CC(=N)NCC[C@@H]1CNC[C@@H](c2ccc(-n3cc4cc(-c5cc(CCC[C@H](C)N)cc(Cl)c5F)[nH]c4nc3=O)cc2)N1` [Compound 50], in data set [1], the “BW Result” value is listed as “+ (a “+” in “BW result” indicates that the rat exhibited a weight gain of 20% or more)” and the “Hematology Result” value is reported as “+ (a “+” in “Hematology result” indicates indicates that the rat exhibited a reticulocyte count change of 65% or less)”. This compound also came in with an MIC in data set [2] of no more than 16 µg/mL. Moreover, in data set [3], the MIC is no more than 16 µg/mL.
As to `CC(=N)NCC[C@@H]1CCC[C@@H](c2ccc(-n3cc4cc(-c5cc(CCC[C@H](C)N)cc(Cl)c5F)[nH]c4nc3=O)cc2)N1CCCF` [Compound 264], in data set [1], the “BW Result” value is reported as “+ (a “+” in “BW result” indicates that the rat exhibited a weight gain of 20% or more)” and the “Hematology Result” value is “+ (a “+” in “Hematology result” indicates indicates that the rat exhibited a reticulocyte count change of 65% or less)”. This compound also displayed a minimal inhibitory concentration (MIC) in data set [2] of no more than 16 µg/mL. The compound further registered an MIC in data set [3] of no more than 16 µg/mL.
With `COC[C@H](N)CCCc1cc(-c2cc3cn(-c4ccc([C@@H]5CCC[C@@H](CCNC(C)=N)N5)cc4)c(=O)nc3[nH]2)cc(C(F)(F)F)c1` [Compound 200], in data set [1], the “BW Result” value is reported as “+ (a “+” in “BW result” indicates that the rat exhibited a weight gain of 20% or more)” and the “Hematology Result” value is on record as “− (a “−” indicates indicates that the rat exhibited a reticulocyte count change of greater than 65%)”. Besides, in data set [2], the MIC is no more than 16 µg/mL. In addition, the MIC in data set [3] was no more than 16 µg/mL.
In the case of `CC(=N)NCC[C@@H]1CCC[C@@H](c2ccc(-n3cc4cc(-c5cc(CCC[C@@H](N)CO)cc(Cl)c5F)[nH]c4nc3=O)cc2F)N1` [Compound 162], the “BW Result” value in data set [1] was “− (a “−” indicates that the rat exhibited a weight gain of less than 20%)”. Also, the “Hematology Result” value in data set [1] is listed as “− (a “−” indicates indicates that the rat exhibited a reticulocyte count change of greater than 65%)”. The MIC in data set [2] and in data set [3] was no more than 16 µg/mL in each case.
In the case of `CC(=N)N[C@H](C)C[C@@H]1CCC[C@@H](c2ccc(-n3cc4cc(-c5cc(CCC[C@H](C)N)cc(Cl)c5F)[nH]c4nc3=O)cc2)N1` [Compound 254], in data set [1], the “BW Result” value is listed as “+ (a “+” in “BW result” indicates that the rat exhibited a weight gain of 20% or more)” and the “Hematology Result” value is recorded as “+ (a “+” in “Hematology result” indicates indicates that the rat exhibited a reticulocyte count change of 65% or less)”. The MIC in data set [2] is no more than 16 µg/mL. In data set [3], this compound registered an MIC of no more than 16 µg/mL.
With `N=C(CF)NCC[C@@H]1COC[C@@H](c2ccc(-n3cc4cc(-c5cc(CCC[C@@H](N)C(F)(F)F)cc(Cl)c5F)[nH]c4nc3=O)cc2)N1` [Compound 67], the MIC in data set [2] and in data set [3] was greater than 16 µg/mL throughout.
`C=C[C@H](N)CCCc1cc(Cl)c(F)c(-c2cc3cn(-c4ccc(CN[C@H](CCNC(C)=N)C5CC5)cc4)c(=O)nc3[nH]2)c1` [Compound 220]: the minimum inhibitory concentration (MIC) in data set [2] and in data set [3] was no more than 16 µg/mL each time.
On to `CC(=N)NCC[C@@H]1CCC[C@@H](c2ccc(-n3cc4cc(-c5cc(CCC[C@@H](N)C6CC6)cc(OC(F)(F)F)c5F)[nH]c4nc3=O)cc2)N1` [Compound 207], for which the MIC in data set [2] and in data set [3] was no more than 16 µg/mL throughout.
Consider `CC(=N)NCC[C@@H]1CCC[C@@H](c2ccc(-n3cc4cc(-c5cc(CCC[C@@H](N)CF)cc(OC(F)(F)F)c5F)[nH]c4nc3=O)cc2)N1` [Compound 236], for which the MIC in data set [2] and in data set [3] was no more than 16 µg/mL in each case.
Consider `C=C[C@H](N)CCCc1cc(Cl)c(F)c(-c2cc3cn(-c4ccc([C@@H]5CCC[C@@H](CCNC(C)=N)N5)c(C)c4)c(=O)nc3[nH]2)c1` [Compound 259], for which the MIC in data set [2] and in data set [3] was no more than 16 µg/mL throughout.
In the case of `CC(=N)NCCCN[C@@H](C)c1ccc(-n2cc3cc(-c4cc(CCC(F)(F)CN)cc(Cl)c4F)[nH]c3nc2=O)cc1F` [Compound 106], the MIC in data set [2] and in data set [3] was no more than 16 µg/mL throughout.
Take `C[C@H](N)CCCc1cc(Cl)c(F)c(-c2cc3cn(-c4ccc(CN[C@@H](CO)CCNC(=N)CF)cc4)c(=O)nc3[nH]2)c1` [Compound 61]: the MIC in data set [2] and in data set [3] was no more than 16 µg/mL throughout.
For `C[C@H](N)CCCc1cc(Cl)c(F)c(-c2cc3cn(-c4ccc([C@@H](C)NCCCNC(=N)CF)c(F)c4)c(=O)nc3[nH]2)c1` [Compound 114], the MIC in data set [2] and in data set [3] was no more than 16 µg/mL each time.
Consider `COc1cc(-n2cc3cc(-c4cc(CCC[C@@H](N)C5CC5)cc(C(F)(F)F)c4F)[nH]c3nc2=O)ccc1[C@@H]1CCC[C@@H](CCNC(C)=N)N1` [Compound 235], for which the minimal inhibitory concentration (MIC) in data set [2] and in data set [3] was no more than 16 µg/mL throughout.

Usually MIC stands for the smallest concentration in the dilution series that meets the test's criterion for growth inhibition.
